The values below are quoted from earlier work in patent publication USRE39705E1, “Method of treating glutathione deficient mammals” (Vit-Immune, L.C., priority 1998, dated 2007).

Test in data set [1]: not given
The source holds these as a separate data set.

`NC(=O)CC[C@H](N)C(=O)O` [L-glutamine]: the liver glutathione entry (after lethal hepatic injury) is given as “preserve liver glutathione”.

In the case of `O=C(O)CCCCC1CCSS1` (stereo not drawn) [Alpha lipoic acid, alpha lipoic acid], the intracellular reduced glutathione result (in vitro and in vivo (literature)) is reported as “substantial increase”.

Regarding `N[C@@H](CCC(=O)N[C@@H](CS)C(=O)NCC(=O)O)C(=O)O` [glutathione, γ-L-Glutamyl-L-cysteinylglycine], the “absorption of oral supplementation by the mammal's cells” value in data set [1] was “not well absorbed”. The “replenishment of intracellular glutathione losses” value in data set [1] (oral) is given as “does not replenish losses inside cells”.

For the compound `N[C@@H](CS)C(=O)O` [Example 1-cysteine, 1-cysteine], the GSH levels entry (substituted into the diet in place of the total protein allowance) was “effective in raising GSH levels”.
